In one assay the test system is IL-4 stimulated expression of CD23 in human Ramos B cells (JAK-1 and JAK-3). In words: Assay for Ramos B-Cell Line Stimulated with IL-4 (CD23 upregulation, FACS). It is filed as cell-based. The conditions noted are these: Homo sapiens, Ramos, Ramos B-cell line stimulated with IL-4; CD23 expression by FACS; read-out: IC50, Example 41. The text has this: One means of assaying for such inhibition is detection of the effect of the 2,4-substituted pyrimidinediamine compounds on the upregulation of downstream gene products. In the Ramos/IL4 assay, B-cells are stimulated with the cytokine Interleukin-4 (IL-4) leading to the activation of the JAK/Stat pathway through phosphorylation of the JAK family kinases, JAK1 and JAK3, which in turn phosphorylate and activate the transcription factor Stat-6. […] To study the effect of inhibitors (e.g., the 2,4-substituted pyrimindinediamine compounds described herein) on the JAK1 and JAK3 kinases, human Ramos B cells are stimulated with human IL-4. Twenty to 24 hours post stimulation, cells are stained for upregulation of CD23 and analyzed using flow cytometry (FACS). […] An exemplary assay of this type is described in greater detail in Example 41
B-cells stimulated with cytokine Interleukin-4 (IL-4) activate the JAK/Stat pathway through phosphorylation of the JAK family kinases, JAK-1 and JAK-3, which in turn phosphorylate and activate the transcription factor Stat-6. […] To study the effect of inhibitors on the JAK family kinases, human Ramos B cells are stimulated with human IL-4.
The Ramos B-cell line was acquired from ATCC (ATCC Catalog No. CRL-1596). The cells were cultured in RPMI 1640 (Cellgro, MediaTech, Inc., Herndon, VA, Cat No. 10-040-CM) with 10% fetal bovine serum (FBS), heat inactivated (JRH Biosciences, Inc, Lenexa, Kansas, Cat No. 12106-500M) according to ATCC propagation protocol. Cells were maintained at a density of 3.5×10^5. The day before the experiment, Ramos B-cells were diluted to 3.5×10^5 cells/mL to ensure that they were in a logarithmic growth phase.
Cells were spun down and suspended in RPMI with 5% serum. 5×10^4 cells were used per point in a 96-well tissue culture plate. Cells were pre-incubated with compound or DMSO (Sigma-Aldrich, St. Louis, MO, Cat No. D2650) vehicle control for 1 hour in a 37° C. incubator. Cells were then stimulated with IL-4 (Peprotech Inc., Rocky Hill, NJ, Cat No. 200-04) for a final concentration of 50 units/mL for 20-24 hours. Cells were then spun down and stained with anti-CD23-PE(BD Pharmingen, San Diego, CA, Cat No. 555711) and analyzed by FACS. Detection was performed using a BD LSR I System Flow Cytometer, purchased from Becton Dickinson Biosciences of San Jose, California The IC50 calculated based on the results of this assay are provided in TABLE XII.
For orientation: In flow cytometry, cells or beads pass a laser one at a time.
As for `NC(=O)COc1ccc(Nc2nc(Nc3ccc(S(N)(=O)=O)cc3)ncc2F)cc1F` [Compound I-100, N4-(4-Aminocarbonylmethoxy-3-fluorophenyl)-N2-(4-aminosulfonylphenyl)-5-fluoro-2,4-pyrimidinediamine], the concentration for half-maximal inhibition (IC50) worked out at 380 nM.
Regarding `COc1cc(Nc2nc(Nc3ccc(S(N)(=O)=O)cc3)ncc2F)ccc1OCC(N)=O` [Compound I-103, N4-(4-Aminocarbonylmethoxy-3-methoxyphenyl)-N2-(4-aminosulfonylphenyl)-5-fluoro-2,4-pyrimidinediamine], the IC50 was found to be 1250 nM.
For the compound `COc1cc(Nc2nc(Nc3cccc(S(N)(=O)=O)c3)ncc2F)ccc1OCC(N)=O` [Compound I-104, N4-(4-Aminocarbonylmethoxy-3-methoxyphenyl)-N2-(3-aminosulfonylphenyl)-5-fluoro-2,4-pyrimidinediamine], the IC50 worked out at 1430 nM.
As for `COc1cc(Nc2nc(Nc3ccc(C)c(S(N)(=O)=O)c3)ncc2F)ccc1OCC(N)=O` [Compound I-105, N4-(4-Aminocarbonylmethoxy-3-methoxyphenyl)-N2-(3-aminosulfonyl-4-methylphenyl)-5-fluoro-2,4-pyrimidinediamine], the half-maximal inhibitory concentration (IC50) worked out at 1170 nM.
For `Cc1ccc(Nc2ncc(F)c(Nc3ccc(OCC(N)=O)c(CO)c3)n2)cc1S(N)(=O)=O` [Compound I-106, N4-(4-Aminocarbonylmethoxy-3-hydroxymethylphenyl)-N2-(3-aminosulfonyl-4-methylphenyl)-5-fluoro-2,4-pyrimidinediamine], the IC50 was found to be 2950 nM.
Take `NC(=O)COc1ccc(Nc2nc(Nc3cccc(S(N)(=O)=O)c3)ncc2F)cc1CO` [Compound I-107, N4-(4-Aminocarbonylmethoxy-3-hydroxymethylphenyl]-N2-(3-aminosulfonylphenyl)-5-fluoro-2,4-pyrimidinediamine]: the half-inhibitory concentration (IC50) worked out at 1510 nM.
As to `CN(C)C(=O)COc1ccc(Nc2nc(Nc3ccc(S(N)(=O)=O)cc3)ncc2F)cc1` [Compound I-128, N2-(4-Aminosulfonylphenyl)-N4-(4-dimethylaminocarbonylmethoxyphenyl)-5-fluoro-2,4-pyrimidinediamine], the IC50 stood at 871 nM.
On the same count and under the same terms, under `CN(C)C(=O)COc1ccc(Nc2nc(Nc3cccc(S(N)(=O)=O)c3)ncc2F)cc1` [Compound I-129, N2-(3-Aminosulfonylphenyl)-N4-(4-dimethylaminocarbonylmethoxyphenyl)-5-fluoro-2,4-pyrimidinediamine] stands 612 nM; under `CN(C)C(=O)COc1ccc(Nc2nc(Nc3ccc(Cl)c(S(N)(=O)=O)c3)ncc2F)cc1Cl` [Compound I-140, N2-(3-Aminosulfonyl-4-chlorophenyl)-N4-(3-chloro-4-dimethylaminocarbonylmethoxyphenyl)-5-fluoro-2,4-pyrimidinediamine], 388 nM.
Still for that read-out and setting: then `CNC(=O)COc1ccc(Nc2nc(Nc3ccc(S(N)(=O)=O)cc3)ncc2F)cc1` [Compound I-143, N2-(4-Aminosulfonylphenyl)-5-fluoro-N4-(4-methylaminocarbonylmethoxyphenyl)-2,4-pyrimidinediamine], with 1190 nM; and `CNC(=O)COc1ccc(Nc2nc(Nc3cccc(S(N)(=O)=O)c3)ncc2F)cc1` [Compound I-144, N2-(3-Aminosulfonylphenyl)-5-fluoro-N4-(4-methylaminocarbonylmethoxyphenyl)-2,4-pyrimidinediamine], with 1010 nM; and `CNC(=O)COc1ccc(Nc2nc(Nc3ccc(S(N)(=O)=O)cc3)ncc2F)cc1Cl` [Compound I-146, N2-(4-Aminosulfonylphenyl)-N4-(3-chloro-4-methylaminocarbonylmethoxyphenyl)-5-fluoro-2,4-pyrimidinediamine], with 364 nM.
For `Cc1cc(Nc2nc(Nc3cccc(S(N)(=O)=O)c3)ncc2F)ccc1OCc1ccccn1` [Compound I-167, N2-(3-Aminosulfonylphenyl)-5-fluoro-N4-[(4-((pyridin-2-yl)methoxy)-3-methylphenyl)]-2,4-pyrimidinediamine], the IC50 amounted to 142 nM.

Still in this assay, the particulars now being: Ramos B-cell line stimulated with IL-4; CD23 expression by FACS; read-out: IC50, Example 41.
As to `CN(C(=O)CC#N)c1ccc(Nc2nc(Nc3cccc(S(N)(=O)=O)c3)ncc2F)cc1` [Compound I-86, N2-(3-Aminosulfonylphenyl)-N4-[4-(N-cyanoacetyl-N-methyl)aminophneyl]-5-fluoro-2,4-pyrimidinediamine], the concentration for half-maximal inhibition (IC50) came to 916 nM.
As for `Cc1ccc(Nc2ncc(F)c(Nc3ccc(N(C)C(=O)CC#N)cc3)n2)cc1S(N)(=O)=O` [Compound I-87, N2-(3-Aminosulfonyl-4-methylphenyl)-N4-[4-(N-cyanoacetyl-N-methyl)aminophneyl]-5-fluoro-2,4-pyrimidinediamine], the IC50 was 1040 nM.
In the case of `NC(=O)COc1cccc(Nc2nc(Nc3cccc(S(N)(=O)=O)c3)ncc2F)c1` [Compound I-88, N4-(3-Aminocarbonylmethoxy)phenyl-N2-(3-aminosulfonyl)phenyl-5-fluoro-2,4-pyrimidinediamine], the half-inhibitory concentration (IC50) worked out at 1080 nM.
Turning to `CN1CCN(S(=O)(=O)c2cccc(Nc3ncc(F)c(Nc4cccc(OCC(N)=O)c4)n3)c2)CC1` [Compound I-89, N4-(3-Aminocarbonylmethoxy)phenyl-5-fluoro-N2-[3-(4-methylpiperazin-1-yl)sulfonyl]phenyl-2,4-pyrimidinediamine], the IC50 was found to be 5500 nM.
Still for that read-out and setting: then `NC(=O)COc1cccc(Nc2nc(Nc3ccc(S(N)(=O)=O)cc3)ncc2F)c1` [Compound I-91, N4-(3-Aminocarbonylmethoxy)phenyl-N2-(4-aminosulfonyl)phenyl-5-fluoro-2,4-pyrimidinediamine], with 2030 nM; and `NC(=O)COc1ccc(Nc2nc(Nc3cccc(S(N)(=O)=O)c3)ncc2F)cc1` [Compound I-111, N4-(4-Aminocarbonylmethoxy)phenyl-N2-(3-aminosulfonyl)phenyl-5-fluoro-2,4-pyrimidinediamine], with 890 nM.
The same measure, in the same setting: then `CN1CCN(S(=O)(=O)c2cccc(Nc3ncc(F)c(Nc4ccc(OCC(N)=O)cc4)n3)c2)CC1` [Compound I-112, N4-(4-Aminocarbonylmethoxy)phenyl-5-fluoro-N2-[3-(4-methylpiperazin-1-yl)sulfonyl]phenyl-2,4-pyrimidinediamine], with 2360 nM; and `NC(=O)COc1ccc(Nc2nc(Nc3ccc(S(N)(=O)=O)cc3)ncc2F)cc1` [Compound I-115, N4-(4-Aminocarbonylmethoxy)phenyl-N2-(4-aminosulfonyl)phenyl-5-fluoro-2,4-pyrimidinediamine], with 793 nM; and `CC(C)(Oc1ccc(Nc2nc(Nc3ccc(S(N)(=O)=O)cc3)ncc2F)cc1)C(N)=O` [Compound I-125, N4-[4-(1-Aminocarbonyl-1-methyl)ethoxy]phenyl-N2-(4-aminosulfonyl)phenyl-5-fluoro-2,4-pyrimidinediamine], with 538 nM.
As for `CCN(CC)CCNS(=O)(=O)c1cccc(Nc2ncc(F)c(Nc3ccc(OCc4ccccn4)cc3)n2)c1` [Compound I-166, N2-[3-(2-N,N-Diethylaminoethyl)aminosulfonylphenyl)-5-fluoro-N4-[4-(2-pyridinyl)methyleneoxyphenyl]-2,4-pyrimidinediamine], the IC50 was found to be 616 nM.
For `CCOc1cc(Nc2nc(Nc3ccc(C)c(S(=O)(=O)NC)c3)ncc2F)ccc1-c1ccccn1` [Compound I-170, 5-Fluoro-N2-[3-N-(methyl)aminosulfonyl-4-methylphenyl]-N4-[4-(2-pyridinyl)-3-methylmethyleneoxyphenyl]-2,4-pyrimidinediamine], the IC50 came to 451 nM.
With `Cc1cnc(Nc2ccc(S(N)(=O)=O)cc2)nc1Nc1ccc(OCc2ccccn2)cc1` [Compound I-181, N2-(4-Aminosulfonylphenyl)-5-methyl-N4-[4-(2-pyridinyl)methyleneoxyphenyl]-2,4-pyrimidinediamine], the IC50 turned out to be 13 nM.
Take `NS(=O)(=O)c1ccc(Nc2ncc(F)c(Nc3cccc(OCc4cccnc4)c3)n2)cc1` [Compound I-185, N2-(4-Aminosulfonylphenyl)-5-fluoro-N4-[3-(3-pyridinyl)methyleneoxyphenyl]-2,4-pyrimidinediamine]: the IC50 worked out at 298 nM.
For `CCN(CC)CCNS(=O)(=O)c1cccc(Nc2ncc(F)c(Nc3cccc(OCc4cccnc4)c3)n2)c1` [Compound I-187, N2-[3-(2-N,N-Diethylaminoethyl)aminosulfonylphenyl)-5-fluoro-N4-[3-(3-pyridinyl)methyleneoxyphenyl]-2,4-pyrimidinediamine], the IC50 was found to be 2910 nM.

As a reminder, the IC50 is the concentration at which inhibition is half-maximal.

These data come from patent US11827628B2, “Compositions and methods for inhibition of the JAK pathway” (Rigel Pharmaceuticals, Inc., priority 2005, dated 2023).
